{"source": "patent US20220031642A1", "about": "“Niclosamide Formulations and Methods of Use” (priority 2020, published 2022)", "key": {"SARS-CoV-2": {"system": "SARS-CoV-2", "experiment": "microbe, parasite or virus in culture", "type": "cell-based", "settings": "Severe acute respiratory syndrome coronavirus 2, Vero C1008; Vero E6 cells, reporter SARS-CoV-2 MOI of 0.1, luciferase activity 24 h post-infection; read-out: antiviral EC50"}, "[1]": {"settings": "human, in vivo, po; cited from earlier work"}}}
{"compound": "O=C(Nc1ccc([N+](=O)[O-])cc1Cl)c1cc(Cl)ccc1O", "note": "[niclosamide, Niclosamide]", "values": [{"measurement": "EC50", "setting": "SARS-CoV-2", "result": 150, "unit": "nM"}, {"measurement": "tmax (plasma levels peaked)", "setting": "[1]", "result": 4, "unit": "h"}]}
